In US10947252B2, “Inhibitors of KEAP1-Nrf2 protein-protein interaction” (Janssen Pharmaceutica NV, priority 2018, dated 2021):
Counter-ions that a name gives are not always drawn.

What was measured:
[1] = molecular target: Kelch domain of human KEAP1 (321-624 aa) (Homo sapiens (Human), UniProt Q14145); assay: KEAP1 KELCH ThermoFluor binding assay; details: KEAP Kelch […], 1,8-ANS, pH 7.0, average of results obtained, read-out: Tf Kd;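 further: Ligand-induced melting temperature shift of E. coli-expressed KEAP1 Kelch protein, Kd estimated from concentration-response curves of ΔTm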
Sequence of Kelch domain of human KEAP1 (321-624 aa) (Q14145 321-624): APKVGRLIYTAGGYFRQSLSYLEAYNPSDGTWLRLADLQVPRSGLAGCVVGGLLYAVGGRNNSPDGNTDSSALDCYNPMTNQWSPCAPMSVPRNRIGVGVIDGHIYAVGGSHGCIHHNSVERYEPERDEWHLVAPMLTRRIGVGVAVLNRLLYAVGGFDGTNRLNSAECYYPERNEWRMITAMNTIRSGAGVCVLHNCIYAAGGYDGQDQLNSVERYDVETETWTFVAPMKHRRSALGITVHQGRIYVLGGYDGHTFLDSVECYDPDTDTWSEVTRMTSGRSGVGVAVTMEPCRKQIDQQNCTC
Text: The shift in the melting point described as a ΔTm is proportional to the concentration and affinity of the ligand. The compound potency may be compared as a rank order of either ΔTm values at a single compound concentration or in terms of KD values, estimated from concentration response curves.
The protein was expressed in E. coli with 6His tag that was cleaved prior to receipt for use.
Protein (KEAP Kelch) and compound solutions were dispensed into black 384-well polypropylene PCR microplates (Abgene) and overlayed with silicone oil (1 μL, Fluka, type DC 200) to prevent evaporation.

[2] = tested on: Glo-Response ARE-luc2P HEK293 cell line; assay: ARE luciferase reporter cell-based assay; details: Homo sapiens, HEK293, 24 h, average of results obtained;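 further: luciferase signal tracks Nrf2 activation of the ARE once compounds disrupt KEAP1-Nrf2 binding, read with One-Glo reagent, DMSO serving as low control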

With `Cc1ccc(C(CC(=O)O)c2ccn3c(C(F)F)nnc3c2C)cc1CN1C[C@H]2CCCN2c2ncc(C#N)cc2S1(=O)=O` (stereo in doubt) [Example 539, 3-(3-(((*R)-3-Cyano-5,5-dioxido-7a,8,9,10-tetrahydropyrido[2,3-f]pyrrolo[2,1-d][1,2,5]thiadiazepin-6(7H)-yl)methyl)-4-methylphenyl)-3-(3-(difluoromethyl)-8-methyl-[1,2,4]triazolo[4,3-a]pyridin-7-yl)propanoic Acid] the Kd [1] was < 1 nM and the EC50 [2] was 76 nM.
`Cc1ccc(C(CC(N)=O)c2ccn3c(C(F)(F)F)nnc3c2C)cc1CN1C[C@@H]2CCCCN2c2ncccc2S1(=O)=O` (stereo in doubt) [Example 547, 3-(3-(((*S)-5,5-Dioxido-7,7a,8,9,10,11-hexahydro-6H-dipyrido[2,1-d:2′,3′-f][1,2,5]thiadiazepin-6-yl)methyl)-4-methylphenyl)-3-(8-methyl-3-(trifluoromethyl)-[1,2,4]triazolo[4,3-a]pyridin-7-yl)propanamide] gave a Kd [1] of 602 nM and an EC50 [2] of 9640 nM.
With `Cc1ccc([C@@H](c2ccn3c(C(F)(F)F)nnc3c2C)C(C)(C)C(=O)O)cc1CN1CC2(CCOCC2)Oc2nc(OC(C)CN3CCCCC3)c(C)cc2S1(=O)=O` (stereo in doubt) [Example 600, (*S)-2,2-Dimethyl-3-(4-methyl-3-((8′-methyl-1′,1′-dioxido-7′-((1-(piperidin-1-yl)propan-2-yl)oxy)-2,3,5,6-tetrahydrospiro[pyran-4,4′-pyrido[2,3-b][1,4,5]oxathiazepin]-2′,(3′H)-yl)methyl)phenyl)-3-(8-methyl-3-(trifluoromethyl)-[1,2,4]triazolo[4,3-a]pyridine-7-yl)propanoic Acid] the Kd [1] was < 1 nM and the EC50 [2] was 4.58 nM.
`Cc1ccc(C(CC(=O)O)c2cc(OC3CC3)c3c(c2)nnn3C)cc1CN1C[C@H]2CCCN2c2ncccc2S1(=O)=O` (stereo partly drawn) [Example 4, 3-(7-Cyclopropoxy-1-methyl-1H-benzo[d][1,2,3]triazol-5-yl)-3-(3-(((R)-5,5-dioxido-7a,8,9,10-tetrahydropyrido[2,3-f]pyrrolo[2,1-d][1,2,5]thiadiazepin-6(7H)-yl)methyl)-4-methylphenyl)propanoic acid] gave a Kd [1] of 0.24 nM and an EC50 [2] of 79 nM.
`CCn1nnc2c(C)c(C(CC(=O)O)c3ccc(C)c(CN4C[C@H]5CCCN5c5ncccc5S4(=O)=O)c3)ccc21` (stereo partly drawn) [Example 20, 3-(3-(((R)-5,5-Dioxido-7a,8,9,10-tetrahydropyrido[2,3-f]pyrrolo[2,1-d][1,2,5]thiadiazepin-6(7H)-yl)methyl)-4-methylphenyl)-3-(1-ethyl-4-methyl-1H-benzo[d][1,2,3]triazol-5-yl)propanoic Acid and its Trifluoroacetic Acid Salt] showed a Kd [1] of 0.081 nM and an EC50 [2] of 6.3 nM.
In the case of `Cc1ccc(C(CC(=O)O)c2ccn3c(C(F)F)nnc3c2C)cc1CN1CC2CCCCN2c2ncc(C#N)cc2S1(=O)=O` (stereo not shown) [Example 28, 3-(3-((3-Cyano-5,5-dioxido-7,7a, 8,9,10,11-hexahydro-6H-dipyrido[2,1-d:2′,3′-f][1,2,5]thiadiazepin-6-yl)methyl)-4-methylphenyl)-3-(3-(difluoromethyl)-8-methyl-[1,2,4]triazolo[4,3-a]pyridin-7-yl)propanoic Acid], the Kd [1] is reported as < 1 nM and the EC50 [2] is reported as 23.5 nM.
For `Cc1ccc(C(CC(=O)O)c2ccn3c(C(F)(F)F)nnc3c2C)nc1CN1CC2CCCCN2c2ncc(C#N)cc2S1(=O)=O` (stereo not shown) [Example 33, 3-(6-((3-Cyano-5,5-dioxido-7,7a,8,9,10,11-hexahydro-6H-dipyrido[2,1-d:2′,3′-f][1,2,5]thiadiazepin-6-yl)methyl)-5-methylpyridin-2-yl)-3-(8-methyl-3-(trifluoromethyl)-[1,2,4]triazolo[4,3-a]pyridin-7-yl)propanoic Acid], the Kd [1] was < 1 nM and the EC50 [2] was 30.6 nM.
With `Cc1ccc(C(c2ccn3c(C(F)(F)F)nnc3c2C)C(C)(C)C(=O)O)cc1CN1CC2(CCOCC2)Oc2nc(OCCCO)ccc2S1(=O)=O` (stereo not shown) [Example 49, 3-(3-((7′-(3-Hydroxypropoxy)-1′,1′-dioxido-2,3,5,6-tetrahydrospiro[pyran-4,4′-pyrido[2,3-b][1,4,5]oxathiazepin]-2′(3′H)-yl)methyl)-4-methylphenyl-2,2′-dimethyl-3-(8-methyl-3-trifluoromethyl)-[1,2,4]triazolo[4,3-a]pyridine-7-yl)propanoic Acid] the Kd [1] was < 1 nM and the EC50 [2] was 71.9 nM.
`Cc1ccc(C(CC(=O)O)c2ccc3c(nnn3CC3CC3)c2C(F)F)cc1CN1CC2CCCN2c2ncccc2S1(=O)=O` (stereo not shown) [Example 65] showed a Kd [1] of 2.5 nM and an EC50 [2] of 360 nM.
In the case of `Cc1ccc(C(CC(=O)O)c2ccc3c(nnn3CC3CC3)c2C)cc1CN1CC2(COC2)Oc2ncccc2S1(=O)=O` (stereo not shown) [Example 67], the Kd [1] is reported as 0.34 nM and the EC50 [2] is reported as 23 nM.
With `Cc1ccc(C(CC(=O)O)c2ccc3c(nnn3C)c2C(F)F)cc1CN1CC2CCCN2c2ncccc2S1(=O)=O` (stereo not shown) [Example 71] the Kd [1] was 2.6 nM and the EC50 [2] was 1160 nM.
For `Cc1ccc(C(CC(=O)O)c2ccc3c(nnn3CC3CC3)c2C)cc1CN1CC2(COC2)Oc2ccccc2S1(=O)=O` (stereo not shown) [Example 74, 3-(1-(Cyclopropylmethyl)-4-methyl-1H-benzo[d][1,2,3]triazol-5-yl)-3-(3-((1′,1′-dioxidospiro[benzo[b][1,4,5]oxathiazepin-4,3′-oxetan]-2,(3H)-yl)methyl)-4-methylphenyl)propanoic Acid], the Kd [1] was < 1 nM and the EC50 [2] was 24 nM.
For `Cc1ccc(C(CC(=O)O)c2ccc3c(nnn3CC3CC3)c2C)cc1CN1CC2(CC2)N(C)c2ncccc2S1(=O)=O` (stereo not shown) [Example 75, 3-(1-(Cyclopropylmethyl)-4-methyl-1H-benzo[d][1,2,3]triazol-5-yl)-3-(4-methyl-3-((5′-methyl-1′,1′-dioxido-5′H-spiro[cyclopropane-1,4′-pyrido[2,3-f][1,2,5]thiadiazepin]-2′(3′H)-yl)methyl)phenyl)propanoic Acid], the Kd [1] was < 1 nM and the EC50 [2] was 14 nM.
`Cc1c(C(CC(=O)O)c2ccc(Cl)c(CN3CC4CCCCN4c4ncccc4S3(=O)=O)c2)ccn2c(C(F)(F)F)nnc12` (stereo not shown) [Example 83, 3-(4-Chloro-3-(((*S)-5,5-dioxido-7,7a,8,9,10,11-hexahydro-6H-dipyrido[2,1-d:2′,3′-f][1,2,5]thiadiazepin-6-yl)methyl)phenyl)-3-(8-methyl-3-(trifluoromethyl)-[1,2,4]triazolo[4,3-a]pyridine-7-yl)propanoic Acid] was tested, and the Kd [1] was < 1 nM and the EC50 [2] was 232 nM.
Work on `Cc1c(C(CC(=O)O)c2ccc(Cl)c(CN3CC4(COC4)Oc4ncccc4S3(=O)=O)c2)ccn2c(C(F)(F)F)nnc12` (stereo not shown) [Example 86, 3-(4-Chloro-3-((1′,1′-dioxoidospiro[oxetane-3,4′-pyrido[2,3-b][1,4,5]oxathiazepin]-2′(3′H)-yl)methyl)phenyl)-3-(8-methyl-3-(trifluoromethyl)-[1,2,4]triazolo[4,3-a]pyridine-7-yl)propanoic Acid] yielded a Kd [1] of 2.4 nM and an EC50 [2] of 6240 nM.
`Cc1cnc2c(c1)S(=O)(=O)N(Cc1cc(C(CC(=O)O)c3ccn4c(C(F)(F)F)nnc4c3C)ccc1Cl)CC1CCCCN21` (stereo not shown) [Example 89, 3-(4-Chloro-3-(((*S)-3-methyl-5,5-dioxido-7,7a,8,9,10,11-hexahydro-6H-dipyrido[2,1-d:2′,3′-f][1,2,5]thiadiazepin-6-yl)methyl)phenyl)-3-(8-methyl-3-(trifluoromethyl)-[1,2,4]triazolo[4,3-a]pyridine-7-yl)propanoic Acid] gave a Kd [1] of 0.0054 nM and an EC50 [2] of 6.9 nM.
With `Cc1c(C(CC(=O)O)c2ccc(Cl)c(CN3CC4CCCCN4c4ncc(F)cc4S3(=O)=O)c2)ccn2c(C(F)(F)F)nnc12` (stereo not shown) [Example 92, 3-(4-Chloro-3-(((*S)-3-fluoro-5,5-dioxido-7,7a,8,9,10,11-hexahydro-6H-dipyrido[2,1-d:2′,3′-f][1,2,5]thiadiazepin-6-yl)methyl)phenyl)-3-(8-methyl-3-(trifluoromethyl)-[1,2,4]triazolo[4,3-a]pyridine-7-yl)propanoic Acid] the Kd [1] was < 1 nM and the EC50 [2] was 28.6 nM.
`Cc1ccc(C(c2ccn3c(C(F)(F)F)nnc3c2C)C(C)(C)C(=O)O)cc1CN1CC2(CCOCC2)Oc2nc(N[C@H](C)CCO)ccc2S1(=O)=O` (stereo partly shown) [Example 117] was tested, and the Kd [1] was < 1 nM and the EC50 [2] was 425 nM.
`Cc1ccc(C(c2ccn3c(C(F)(F)F)nnc3c2C)C(C)(C)C(=O)O)cc1CN1CC2(CCOCC2)Oc2nc(N[C@@H](C)CCO)ccc2S1(=O)=O` (stereo partly shown) [Example 118] was tested, and the Kd [1] was < 1 nM and the EC50 [2] was 324 nM.
In the case of `CCn1nnc2c(C)c(C(CC(=O)O)c3ccc(C)c(CN4CC5(COC5)Oc5ncccc5S4(=O)=O)c3)ccc21` (stereo not shown) [Example 252, 3-(3-((1′,1′-Dioxidospiro[oxetane-3,4′-pyrido[2,3-b][1,4,5]oxathiazepin]-2′(3′H)-yl)methyl)-4-methylphenyl)-3-(1-ethyl-4-methyl-1H-benzo[d][1,2,3]triazol-5-yl)propanoic Acid], the Kd [1] is reported as < 1 nM and the EC50 [2] is reported as 21 nM.
In the case of `Cc1ccc(C(CC(=O)O)c2ccn3c(C(F)(F)F)nnc3c2)cc1CN1C[C@@H]2CCCN2c2ncccc2S1(=O)=O` (stereo partly drawn) [Example 253, 3-(3-(((S)-5,5-Dioxido-7a,8,9,10-tetrahydropyrido[2,3-f]pyrrolo[2,1-d][1,2,5]thiadiazepin-6(7H)-yl)methyl)-4-methylphenyl)-3-(3-(trifluoromethyl)-[1,2,4]triazolo[4,3-a]pyridin-7-yl)propanoic Acid], the Kd [1] is reported as < 1 nM and the EC50 [2] is reported as 1170 nM.
In the case of `CC[C@@H]1CN(Cc2cc(C(CC(=O)O)c3ccn4c(C(F)(F)F)nnc4c3)ccc2C)S(=O)(=O)c2cccnc2O1` (stereo partly drawn) [Example 256, 3-(3-(((R)-4-Ethyl-1,1-dioxido-3,4-dihydro-2H-pyrido[2,3-b][1,4,5]oxathiazepin-2-yl)methyl)-4-methylphenyl)-3-(3-(trifluoromethyl)-[1,2,4]triazolo[4,3-a]pyridin-7-yl)propanoic Acid], the Kd [1] is reported as < 1 nM and the EC50 [2] is reported as 379 nM.
For `Cc1ccc(C(CC(=O)O)c2ccn3c(C(F)(F)F)nnc3c2C)cc1CN1CC2(COC2)Oc2ncccc2S1(=O)=O` (stereo not shown) [Example 259, 3-(3-((1′,1′-Dioxidospiro[oxetane-3,4′-pyrido[2,3-b][1,4,5]oxathiazepin]-2′(3′H)-yl)methyl)-4-methylphenyl)-3-(8-methyl-3-(trifluoromethyl)-[1,2,4]triazolo[4,3-a]pyridin-7-yl)propanoic Acid], the Kd [1] was < 1 nM and the EC50 [2] was 201 nM.
